The text below walks through data of patent publication US20100087458A1, “METHOD OF TREATING MELANOMA” (Myriad Pharmaceuticals, Inc., priority 2007, published 2010).

The structures appear in SMILES notation. “Also recorded” adds a separate entry of the source. Where a name gives a salt, the structure may show the parent alone.

The subject of the series is Subjects with refractory solid tumors. Nature of the series: Phase I clinical trial, open-label, dose-escalating, multiple-dose, weekly intravenous administration (safety, tolerability). In kind it is in vivo. The conditions noted are these: human subjects. How it is done:
An open-label, dose-escalating, multiple-dose study to define the safety, tolerability and phamacokinetics of weekly intravenous administration of (4-Methoxy-phenyl)-methyl-(2-methyl-quinazolin-4-yl)-amine hydrochloride was performed. A dosing schedule (each 4 week cycle) was performed for (4-Methoxy-phenyl)-methyl-(2-methyl-quinazolin-4-yl)-amine hydrochloride weekly for 3 weeks with no infusion on the fourth week of each cycle. Subjects with refractory solid tumors were enrolled in cohorts of 3. During Cycle 1, subjects were hospitalized during each infusion of (4-Methoxy-phenyl)-methyl-(2-methyl-quinazolin-4-yl)-amine hydrochloride and remained for observation and safety evaluation for approximately 24 hours following the end of the infusion. All subject had continuous telemetry for 2 hours prior to infusion, for 1-2 hour infusion and for 3 hours after the end of the infusion. Any clinically significant electrocardiographic (ECG) wave form abnormality was recorded and prolongation of the monitoring period extended at the discretion of the principal investigator.
Electrocardiograms were obtained prior to starting the infusion and within 30 minutes of the end of infusion for each infusion of the first cycle. Electrocardiograms on Day 1 were obtained in triplicate 5 minutes apart.
Neurocognitive assessments were made by administration of the Mini-Mental State Examination (MMSE), the Hopkins Verbal Learning and timed Grooved Pegboard tests before administration of the intravenous infusion and approximately 24 hours of the infusion at each weekly administration of the first cycle.
On days 1, 8, and 15 of each cycle, vital signs were obtained prior to the first dose, at 15, 30, and 60 minutes after the initiation of the infusion, and at 0.5, 1, 1.5, 2, and 4 hours after the end of the intravenous infusion. Vital signs at all time points beyond the start of the intravenous infusion included heart rate, blood pressure and respirations. Temperature was measured at the end of the infusion and 4 hours later.
Individual subjects were allowed to continue on repeated weekly ×3 administrations every 28 days with no dose increase provided there was no unacceptable toxicity or disease progression.
Tumor response was evaluated by response evaluation criteria in solid tumors (RECIST) criteria. To prevent sever hypersensitivity reactions due to Cremophor® EL, subjects were premedicated with oral dexamethasone (20 mg) administered approximately 12 and 6 hours before the intravenous infusion with (4-Methoxy-phenyl)-methyl-(2-methyl-quinazolin-4-yl)-amine hydrochloride, diphenhydramine (50 mg) or its equivalent administered intravenously 30-60 minutes before (4-Methoxy-phenyl)-methyl-(2-methyl-quinazolin-4-yl)-amine hydrochloride, and cimetidine (300 mg) or ranitidine (50 mg) administered intravenously 30-60 minutes before (4-Methoxy-phenyl)-methyl-(2-methyl-quinazolin-4-yl)-amine hydrochloride.

The mark [1] stands for this setting: weekly i.v. infusion for 3 of 4 weeks, 0.3-3.3 mg/m^2.
Where [2] appears, read: weekly i.v. infusion, 0.3-3.3 mg/m^2.

Regarding `COc1ccc(N(C)c2nc(C)nc3ccccc23)cc1` [(4-Methoxy-phenyl)-methyl-(2-methyl-quinazolin-4-yl)-amine hydrochloride], under “ECG before and within 30 minutes of end of infusion, 0.3-3.3 mg/m^2”, the “effects on cardiac conduction (PR, QRS or QTc)” value is “no significant effects on cardiac conduction”. In addition, the “overall safety and tolerability” value (weekly i.v. administration, various dosages, hydrochloride) was “safe and well tolerated in human subjects at various dosages; also recorded: safe and tolerable”. Also, under setting [1], the dose limiting toxicity entry is on record as “vascular in nature, manifested by an acute coronary syndrome”; the intratumor bleeding result was “incidences of intratumor bleeding”; the peripheral cytotoxicity result is “no evidence of cytotoxity peripherally at the administered doses”. For the same compound, under setting [2], the bradycardia result is listed as “occasional episodes of bradycardia” and the systolic blood pressure result is “dose-related increase in systolic blood pressure”.
